Data on one compound can be found in patent US7592326B2, “Method for stimulating the immune, inflammatory or neuroprotective response” (priority 2004, dated 2009).

One test relates to immature DCs. The test is described as follows: Surface phenotype of DCs exposed to c-di-GMP (flow cytometry). The test is classed as cell-based, human. As to the method: Peripheral blood mononuclear cells (PBMC) were isolated by Ficoll-Hypaque gradient separation of buffy coats obtained from healthy volunteer blood donors by the Transfusion Center of Università Degli Studi “La Sapienza” Rome. DCs were generated from monocytes purified from PBMC by positive selection using magnetic cell separation columns and CD14 Microbeads. Highly enriched monocytes (>95% CD14^+) were cultured at 6×10^5/ml in RPMI 1640 medium supplemented with 15% heat-inactivated fetal calf serum (FCS), L-glutamine and penicillin-streptomycin and 250 ng/ml granulocyte macrophage-colony stimulating factor (GM-CSF) and 500 U/ml interleukin (IL)-4 at 37° C. for 5 days. Differentiation to DC was assessed both by morphologic observation and the detection of specific surface markers by flow cytometry. These cells were CD14^−, CD1a^+, HLA-DR^intermediate, HLA-ABC^intermediate CD80^low, CD86^low consistent with an immature DC phenotype. Untreated immature DCs were used as controls. […] LPS-treated DCs became stimulated/activated and produced CD83^+, HLA-DR^high, HLA-ABC^high consistent with a mature DC phenotype. […] Experiments using trypan blue exclusion tests were always performed in order to exclude any aspecific toxicity of c-di-GMP. NaCl (0.9%) used to resuspend the compound was always included as control. Cell staining was performed using mouse monoclonal antibodies FITC- or PE-conjugate. The following mAbs were used: CD14 (IgG1, PE), CD1a (IgG1, FITC), HLA-DR (IgG2a, FITC), HLA-ABC (IgG1, FITC), CD80 (IgG1, FITC), CD86 (IgG1, FITC); CD83 (IgG2b, PE), CXCR4 (IgG2aPE), CCR5 (IgG2a, FITC), CD32 (IgG2b, FITC). CD40, CCR7 and mannose receptor (MR) staining was performed using mouse mAb followed by FITC-conjugated affinity purified, isotype-specific goat anti-mouse Abs. Samples were analyzed using a FACScan flow cytometer and CellQuest software (Becton Dickinson). To investigate whether c-di-GMP induced phenotypic differentiation of human DCs, immature and mature DCs were cultured with c-di-GMP for 24 h and then analyzed for surface molecule expression.

The subject of a further test is NF-κB. The test is described as follows: Western blot signaling in human DCs: NF-κB (I-κBα degradation). The test is classed as cell-based. The note with it: up to 30 min. As to the method: Human PBMC were isolated by Ficoll density gradient centrifugation from leukopacks supplied by the Department of Transfusion Medicine (Clinical Center, National Institute of Health, Bethesda, Md.). Monocytes were purified (>95%) from human PBMC with MACS CD14 monocyte isolation kit (Miltenyi Biotech Inc., Auburn, Calif.) according to the manufacturer's instruction. DCs were generated as described previously (Yang et al., 2001). In brief, DCs were generated by incubating purified monocytes at 2×10^5/ml in RPMI 1640 containing 10% FBS, 2 mM glutamine, 25 mM HEPES, 100 U/ml penicillin, 100 ug/ml streptomycin, 50 ng/ml recombinant human GM-CSF (PeproTech, Rocky Hill, N.J.), and 50 ng/ml recombinant human IL-4 (PeproTech) at 37° C. in a CO2 (5%) incubator for 7 days. On day 3 and 5 of the incubation, half of the culture medium was replaced with pre-warmed (37° C.) fresh GM-CSF- and IL-4-containing medium. On day 7, DCs were collected, washed three times with PBS, and serum-starved for 8 hours by incubating in serum-free RPMI-1640 containing GM-CSF and IL-4 (2×10^5/ml) at 37° C. in a CO2 (5%) incubator. Subsequently, DCs (2×10^6/sample) were incubated at 37° C. in the absence or presence of c-di-GMP or GMP (Sigma, St. Louis, Mo.) at concentrations specified for 5 or 30 minutes. […]
(In general: In western blotting, separated proteins are transferred to a membrane and probed.)

A further test has as its system Murine splenic DCs. The test is described as follows: Activation of murine splenic DCs. The note with it: 200 uM, 24 h.

Consider `Nc1nc(=O)c2ncn([C@@H]3OC4COP(=O)(O)O[C@H]5[C@@H](O)[C@H](n6cnc7c(=O)nc(N)[nH]c76)O[C@@H]5COP(=O)(O)OC4C3O)c2[nH]1` (stereo partly drawn) [c-di-GMP, Bis(3′→5′)-cyclic diguanylic acid], for which the “effect in dose-response titration on DCs” value was “No effect” in the test with immature DCs (0.5 μM c-di-GMP) and “inconsistent results” in the test on immature DCs (200 μM c-di-GMP). Moreover, in the test with immature DCs (DCs with LPS, data not shown), the LPS-induced maturation entry is recorded as “did not interfere”. In the test with immature DCs (data not shown), the “surface expression of CD1a, HLA-ABC, CCR5 and CD40” value was “did not affect”. Besides, the “expression of chemokine receptor CXCR4” value in the test on immature DCs (immature DCs, 24 h, FIG. 1C) is given as “significantly increased”. Also, the “expression of chemokine receptor CCR7” value in the test on immature DCs (immature DCs, 24 h, FIG. 1D) is given as “significantly increased”. Also, in the test with immature DCs (immature DCs, 24 h, FIG. 1F), the “expression of CD86 (B7-2) (percentage of positive cells)” value is “up-regulated”. In the test on immature DCs (immature DCs, 24 h, FIG. 1H), the CD32 expression result is “not affected”. Further, the “expression of CD83 (mean fluorescence)” value in the test on immature DCs (immature DCs, 24 h, dose-dependent, no effect at high concentrations, FIG. 1B) was “slightly up-regulated”. Further, in the test with immature DCs (immature DCs, 24 h, dose-dependent, FIG. 1E), the “expression of CD80 (B7-1)” value was “slightly increased”. The “expression of mannose receptor (MR) (mean fluorescence)” value in the test with immature DCs (immature DCs, 24 h, dose-dependent, FIG. 1G) is reported as “reduced”. Further, the “expression of HLA-DR (MFI, percentage of positive cells)” value in the test with immature DCs (immature DCs, c-di-GMP 5, 50, 100 μM, 24 h, FIG. 1A) is “up-regulated”. Also, the “activation of NF-κB (I-κBα degradation)” value with NF-κB is recorded as “did not activate”. In the test with Murine splenic DCs (FIG. 9A), the “surface expression of co-stimulatory molecules CD80 and CD86” value is recorded as “increase”. The “TNF and IL-8 protein in supernatant” value in the test with Murine splenic DCs (FIGS. 9B and 9C) is given as “increase”.
